# Laboratory results from patent US20200385371A1 (Propellon Therapeutics Inc., priority 2017, published 2020).
# Columns and labels:
# WDR5 [1] = biological target: T1, WDR5 (Homo sapiens, UniProt P61964); experiment: Surface Plasmon Resonance (SPR) assay; assay type: binding; design: Full length WDR5 with an N-terminal His tag and C-terminal AviTag; His tag (N); made in house; host or cells: E. coli; conditions: read-out: SPR Kd
# In short: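 Full-length biotinylated WDR5 (N-His, C-AviTag, E. coli) captured (~3000 RU) on streptavidin SA chip; Biacore T200. HBS-EP pH 7.4 plus 5% DMSO running buffer, 40 μl/min.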
# WDR5 [2] = biological target: T1, WDR5; experiment: Fluorescence Polarization (FP) binding assay
# In short: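 Buffer was pH 6.5 sodium phosphate (80 mM) with 20 mM KCl and 0.008% Triton X-100; 9-Ala-FAM probe at 20 nM used 0.05 μM WDR5 and 480/540 nm polarization, H3 (1-15) probe at 30 nM used 0.3 μM WDR5 and 485/528 nm. Quadruplicate data were hyperbola-fitted to give Kdisp.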
# MV4-11 cells = experiment: Cell proliferation assay (ATPlite); assay type: cell-based; conditions: Homo sapiens, 120 h; MV4-11 cells, five days; read-out: GI MV411 EC50
# In short: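 ATPlite luminescence after five days' culture (37° C, 5% CO2) gives viability. Compounds dosed in 10 concentrations up to 10 μM against DMSO; 1,000 cells/well seeded in Alpha-MEM/10% FBS.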
Structure (SMILES),Kd (WDR5 [1]) [µM],IC50 (WDR5 [2]) [µM],EC50 (MV4-11 cells) [µM]
"C[C@@H]1CN(c2cc(F)c(-c3cnc(N4CCC(F)(F)CC4)nc3)c(F)c2NC(=O)c2c[nH]c(=O)cc2C(F)(F)F)C[C@H](C)N1C [Example 61, N-(3-(2-(4,4-difluoropiperidin-1-yl)pyrimidin-5-yl)-2,4-difluoro-6-((3S,5R)-3,4,5-trimethylpiperazin-1-yl)phenyl)-6-oxo-4-(trifluoromethyl)-1,6-dihydropyridine-3-carboxamide]",0.00126,0.0117,0.0229
"C[C@H]1CN(c2cc(F)c(C3=CCN(c4ncc(F)cn4)CC3)c(F)c2NC(=O)c2c[nH]c(=O)cc2C(F)(F)F)CCN1C [Example 82, (S)—N-(6-(3,4-dimethylpiperazin-1-yl)-2,4-difluoro-3-(1-(5-fluoropyrimidin-2-yl)-1,2,3,6-tetrahydropyridin-4-yl)phenyl)-6-oxo-4-(trifluoromethyl)-1,6-dihydropyridine-3-carboxamide]",0.00122,0.016,0.0528
"C[C@H]1CN(c2ncc(-c3c(F)cc(N4CCN(C)[C@@H](C)C4)c(NC(=O)c4c[nH]c(=O)cc4C(F)(F)F)c3F)cn2)C[C@H](C)O1 [Example 87, N-(3-(2-((2S,6S)-2,6-dimethylmorpholino)pyrimidin-5-yl)-6-((S)-3,4-dimethylpiperazin-1-yl)-2,4-difluorophenyl)-6-oxo-4-(trifluoromethyl)-1,6-dihydropyridine-3-carboxamide]",0.00147,0.00985,0.0194
"C[C@@H]1CN(c2ncc(-c3c(F)cc(N4CCN(C)[C@@H](C)C4)c(NC(=O)c4ccc(F)cc4C(F)(F)F)c3F)cn2)C[C@H](C)O1 [Example 66, N-(3-(2-((2S,6R)-2,6-dimethylmorpholino)pyrimidin-5-yl)-6-((S)-3,4-dimethylpiperazin-1-yl)-2,4-difluorophenyl)-4-fluoro-2-(trifluoromethyl)benzamide Formic Acid]",0.00202,0.0141,0.0458
"COc1cc(N2CC=C(c3c(F)cc(N4CCN(C)[C@@H](C)C4)c(NC(=O)c4c[nH]c(=O)cc4C(F)F)c3F)C2)ncn1 [Example 74, (S)-4-(difluoromethyl)-N-(6-(3,4-dimethylpiperazin-1-yl)-2,4-difluoro-3-(1-(6-methoxypyrimidin-4-yl)-2,5-dihydro-1H-pyrrol-3-yl)phenyl)-6-oxo-1,6-dihydropyridine-3-carboxamide]",0.00212,0.0164,0.0367
"CC(C)OC(=O)N1CC=C(c2c(F)cc(N3CCN(C)[C@@H](C)C3)c(NC(=O)c3c[nH]c(=O)cc3C(F)F)c2F)CC1 [Example 34, Isopropyl (S)-4-(3-(4-(difluoromethyl)-6-oxo-1,6-dihydropyridine-3-carboxamido)-4-(3,4-dimethylpiperazin-1-yl)-2,6-difluorophenyl)-3,6-dihydropyridine-1(2H)-carboxylate]",0.00202,0.022,0.0444
"COc1cc(N2CC=C(c3c(F)cc(N4CCN(C)[C@@H](C)C4)c(NC(=O)c4c[nH]c(=O)cc4C(F)(F)F)c3F)C2)ncn1 [Example 75, (S)—N-(6-(3,4-dimethylpiperazin-1-yl)-2,4-difluoro-3-(1-(6-methoxypyrimidin-4-yl)-2,5-dihydro-1H-pyrrol-3-yl)phenyl)-6-oxo-4-(trifluoromethyl)-1,6-dihydropyridine-3-carboxamide]",0.0018,0.0185,0.0351
"C[C@@H]1CN(c2cc(F)c(-c3ccc(F)c(C(N)=O)c3)c(F)c2NC(=O)c2c[nH]c(=O)cc2C(F)(F)F)C[C@H](C)N1C [Example 28, N-(3′-carbamoyl-2,4′,6-trifluoro-4-((3S,5R)-3,4,5-trimethylpiperazin-1-yl)-[1,1′-biphenyl]-3-yl)-6-oxo-4-(trifluoromethyl)-1,6-dihydropyridine-3-carboxamide]",0.00501,0.0362,2.87
"C[C@@H]1CN(c2cc(F)c(-c3ccc(OC4CCOCC4)nc3)c(F)c2NC(=O)c2c[nH]c(=O)cc2C(F)(F)F)C[C@H](C)N1C [Example 65, N-(2,4-difluoro-3-(6-((tetrahydro-2H-pyran-4-yl)oxy)pyridin-3-yl)-6-((3S,5R)-3,4,5-trimethylpiperazin-1-yl)phenyl)-6-oxo-4-(trifluoromethyl)-1,6-dihydropyridine-3-carboxamide]",0.00151,0.0102,0.0338
"C[C@@H]1CN(c2cc(F)c(-c3ccnc(N4CCOCC4)c3)c(F)c2NC(=O)c2c[nH]c(=O)cc2C(F)(F)F)C[C@H](C)N1C [Example 69, N-(2,4-difluoro-3-(2-morpholinopyridin-4-yl)-6-((3S,5R)-3,4,5-trimethylpiperazin-1-yl)phenyl)-6-oxo-4-(trifluoromethyl)-1,6-dihydropyridine-3-carboxamide]",0.00301,0.0232,0.417
"C[C@@H]1CN(c2cc(F)c(-c3ccc(C(N)=O)c(F)c3)c(F)c2NC(=O)c2c[nH]c(=O)cc2C(F)(F)F)C[C@H](C)N1C [Example 25, N-(4′-carbamoyl-2,3′,6-trifluoro-4-((3S,5R)-3,4,5-trimethylpiperazin-1-yl)-[1,1′-biphenyl]-3-yl)-6-oxo-4-(trifluoromethyl)-1,6-dihydropyridine-3-carboxamide]",0.00205,0.0195,0.148
"CNC(=O)c1ccc(-c2c(F)cc(N3C[C@@H](C)N(C)[C@@H](C)C3)c(NC(=O)c3c[nH]c(=O)cc3C(F)(F)F)c2F)cc1F [Example 24, 6-Oxo-N-(2,3′,6-trifluoro-4′-(methylcarbamoyl)-4-((3S,5R)-3,4,5-trimethylpiperazin-1-yl)-[1,1′-biphenyl]-3-yl)-4-(trifluoromethyl)-1,6-dihydropyridine-3-carboxamide]",0.003,0.0249,0.101

# More lines, now with the values ahead:
Kd (WDR5 [1]) [µM],IC50 (WDR5 [2]) [µM],EC50 (MV4-11 cells) [µM],Structure (SMILES)
0.00501,0.0177,0.0147,"CC(C)[C@H]1CN(c2ncc(-c3c(F)cc(N4C[C@@H](C)N(C)[C@@H](C)C4)c(NC(=O)c4c[nH]c(=O)cc4C(F)(F)F)c3F)cn2)CCO1 [Example 103, N-(2,4-difluoro-3-(2-((S)-2-isopropylmorpholino)pyrimidin-5-yl)-6-((3S,5R)-3,4,5-trimethylpiperazin-1-yl)phenyl)-6-oxo-4-(trifluoromethyl)-1,6-dihydropyridine-3-carboxamide]"
0.00093,0.015,0.0276,"C[C@H]1CN(c2cc(F)c(C3=CCN(c4ccnc(C#N)n4)C3)c(F)c2NC(=O)c2c[nH]c(=O)cc2C(F)F)CCN1C [Example 106, (S)—N-(3-(1-(2-cyanopyrimidin-4-yl)-2,5-dihydro-1H-pyrrol-3-yl)-6-(3,4-dimethylpiperazin-1-yl)-2,4-difluorophenyl)-4-(difluoromethyl)-6-oxo-1,6-dihydropyridine-3-carboxamide]"
0.00225,0.0165,0.0203,"CC(C)[C@@H]1CN(c2ncc(-c3c(F)cc(N4CCN(C)[C@@H](C)C4)c(NC(=O)c4c[nH]c(=O)cc4C(F)(F)F)c3F)cn2)CCO1 [Example 104, N-(6-((S)-3,4-dimethylpiperazin-1-yl)-2,4-difluoro-3-(2-((R)-2-isopropylmorpholino)pyrimidin-5-yl)phenyl)-6-oxo-4-(trifluoromethyl)-1,6-dihydropyridine-3-carboxamide]"
0.0011,0.0119,0.0793,"C[C@@H]1CN(c2ncc(-c3c(F)cc(N4CCN(C)[C@@H](C)C4)c(NC(=O)c4cn(C)c(=O)cc4C(F)F)c3F)cn2)C[C@H](C)O1 [Example 161, 4-(Difluoromethyl)-N-(3-(2-((2S,6R)-2,6-dimethylmorpholino)pyrimidin-5-yl)-6-((S)-3,4-dimethylpiperazin-1-yl)-2,4-difluorophenyl)-1-methyl-6-oxo-1,6-dihydropyridine-3-carboxamide]"
0.0011,0.0153,0.0834,"C[C@H]1CN(c2ncc(-c3c(F)cc(N4CCN(C)[C@@H](C)C4)c(NC(=O)c4cn(C)c(=O)cc4C(F)(F)F)c3F)cn2)C[C@H](C)O1 [Example 163, N-(3-(2-((2S,6S)-2,6-dimethylmorpholino)pyrimidin-5-yl)-6-((S)-3,4-dimethylpiperazin-1-yl)-2,4-difluorophenyl)-1-methyl-6-oxo-4-(trifluoromethyl)-1,6-dihydropyridine-3-carboxamide]"
0.0008,0.0124,0.0559,"CC(C)[C@@H]1CN(c2nccc(-c3c(F)cc(N4CCN(C)[C@@H](C)C4)c(NC(=O)c4c[nH]c(=O)cc4C(F)F)c3F)n2)CCO1 [Example 124, 4-(Difluoromethyl)-N-(6-((S)-3,4-dimethylpiperazin-1-yl)-2,4-difluoro-3-(2-((R)-2-isopropylmorpholino)pyrimidin-4-yl)phenyl)-6-oxo-1,6-dihydropyridine-3-carboxamide]"
0.00116,0.0133,0.0719,"C[C@@H]1CN(c2ncc(-c3c(F)cc(N4CCN(C)[C@@H](C)C4)c(NC(=O)c4cn(C)c(=O)cc4C(F)(F)F)c3F)cn2)C[C@H](C)O1 [Example 164, N-(3-(2-((2S,6R)-2,6-dimethylmorpholino)pyrimidin-5-yl)-6-((S)-3,4-dimethylpiperazin-1-yl)-2,4-difluorophenyl)-1-methyl-6-oxo-4-(trifluoromethyl)-1,6-dihydropyridine-3-carboxamide]"
